From ChEMBL document CHEMBL5725973, “Pyrrolidine orexin receptor antagonists” (2018)

Experiments:
Orexin receptor type 2 = biological target: T1, Orexin receptor type 2 (Homo sapiens, UniProt O43614); experiment: (§1) FLIPR Ca2+ Flux Assay: All reagents were from GIBCO-Invitrogen Corp. The seeded plates are incubated overnight at 37° C. and 5% CO2. Ala-6,12 human orexin-A as the agonist is prepared as a 1 mM stock solution in 1% bovine serum albumin (BSA) and diluted in assay buffer (HBSS containing 20 mM HEPES, 0.1% BSA and 2.5 mM probenecid, pH7.4) for use in the assay at a final concentration of 70pM. Test compounds are prepared as 10 mM stock solution in DMSO, then diluted in 384-well plates, first in DMSO, then assay buffer. On the day of the assay, cells are washed 3 times with 100 μl assay buffer and then incubated for 60 min (37° C., 5% CO2) in 60 μl assay buffer containing 1 μM Fluo-4AM ester, 0.02% pluronic acid, and 1% BSA. The dye loading solution is then aspirated and cells are washed 3 times with 100 μl assay buffer. 30 μl of that same buffer is left in each well. Within the Fluorescent Imaging Plate Reader (FLIPR, Molecular Devices), test compounds are added to the plate in a volume of 25 μl, incubated for 5 min and finally 25 μl of agonist is added. Fluorescence is measured for each well at 1 second intervals for 5 minutes and the height of each fluorescence peak is compared to the height of the fluorescence peak induced by 70 pM Ala-6,12 orexin-A with buffer in place of antagonist. For each antagonist, IC50 value (the concentration of compound needed to inhibit 50% of the agonist response) is determined. Alternatively, compound potency can be assessed by a radioligand binding assay (described in Bergman et. al. Bioorg. Med. Chem. Lett. 2008, 18, 1425-1430) in which the inhibition constant (Ki) is determined in membranes prepared from CHO cells expressing either the OX1 or OX2 receptor. The intrinsic orexin receptor antagonist activity of a compound which may be used in the present invention may be determined by these assays.
T1 sequence (O43614 whole entry): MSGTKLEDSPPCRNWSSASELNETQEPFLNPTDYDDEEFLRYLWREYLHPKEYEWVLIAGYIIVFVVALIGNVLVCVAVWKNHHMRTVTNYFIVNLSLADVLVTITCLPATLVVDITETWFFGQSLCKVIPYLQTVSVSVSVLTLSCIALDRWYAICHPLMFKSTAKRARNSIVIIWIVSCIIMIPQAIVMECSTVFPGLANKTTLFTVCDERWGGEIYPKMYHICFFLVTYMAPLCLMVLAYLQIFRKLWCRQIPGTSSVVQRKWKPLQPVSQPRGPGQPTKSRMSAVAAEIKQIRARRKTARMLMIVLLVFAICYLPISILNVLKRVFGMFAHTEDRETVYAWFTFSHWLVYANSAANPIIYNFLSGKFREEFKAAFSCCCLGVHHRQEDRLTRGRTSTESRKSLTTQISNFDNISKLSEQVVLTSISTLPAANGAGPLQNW

[1] = biological target: T2, Orexin/Hypocretin receptor type 1 (Homo sapiens, UniProt O43613); experiment: as §1
T2 sequence (O43613 whole entry): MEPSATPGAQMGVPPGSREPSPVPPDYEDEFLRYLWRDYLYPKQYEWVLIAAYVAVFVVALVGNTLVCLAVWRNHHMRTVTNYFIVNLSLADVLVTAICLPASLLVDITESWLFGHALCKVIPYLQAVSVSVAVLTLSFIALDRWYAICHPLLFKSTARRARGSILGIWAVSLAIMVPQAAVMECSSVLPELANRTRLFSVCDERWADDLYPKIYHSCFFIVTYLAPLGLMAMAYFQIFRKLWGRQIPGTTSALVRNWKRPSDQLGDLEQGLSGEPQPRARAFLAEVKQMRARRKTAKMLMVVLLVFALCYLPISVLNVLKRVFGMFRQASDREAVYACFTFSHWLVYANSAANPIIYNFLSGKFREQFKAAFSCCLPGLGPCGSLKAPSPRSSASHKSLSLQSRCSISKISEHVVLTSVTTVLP

SMILES | IC50 (Orexin receptor type 2) | IC50 [1]
C[C@@H]1C[C@@H](Nc2cc(Br)ccn2)CN1C(=O)c1ccccc1-n1nccn1 | 11.2 nM | 1150 nM
C[C@@H]1C[C@@H](Nc2cc(OCC(F)F)ccn2)CN1C(=O)c1ccccc1C1(C#N)CCC1 | 58.3 nM | 4040 nM
